Among the data in PubChem BioAssay (NCI) are TGI and GI50 values, retold here.

Among the test systems are HOP-62 NSCLC; KM12 colon; M14 melanoma; MOLT-4 leukemia; NCI-H23 lung; SNB-19 CNS; SW-620 colon; TK-10 renal; UACC-62 melanoma; SK-MEL-2 melanoma.
Holding throughout (test): NCI anticancer screen, dose series, 48 h

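Exposure lasted 48 hours, with cells grown in 96-well plates and compounds tested at five concentrations. GI50 = concentration required for 50% inhibition of growth. TGI denotes the concentration required for complete inhibition of growth.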 Bounds are passed on as bounds.

For the molecule `Cc1nc(C)c(N2CCN(CN)CC2)c(=O)[nH]1`, the TGI with HOP-62 NSCLC, in the test on KM12 colon, in the test with M14 melanoma, with MOLT-4 leukemia, in the test on NCI-H23 lung and in the test with SNB-19 CNS was > 100 µM each time. In addition, the TGI in the test on SW-620 colon, in the test with TK-10 renal and in the test with UACC-62 melanoma was > 100 µM throughout.

Consider `c1ccc2c[n+](CCCC[n+]3ccc4ccccc4c3)ccc2c1`, for which the TGI with HOP-62 NSCLC, in the test with KM12 colon, in the test with M14 melanoma, with NCI-H23 lung, in the test on SK-MEL-2 melanoma and with SNB-19 CNS was > 100 µM throughout. For the same molecule, the TGI in the test on SW-620 colon, in the test on TK-10 renal and in the test on UACC-62 melanoma was > 100 µM each time.

With `COC(=O)[C@@H](NS(=O)(=O)CC12CCC(CC1)C2(C)C)C(C)(C)C`, the TGI is > 100 µM in the test on KM12 colon; > 100 µM in the test with M14 melanoma; 70 µM in the test with MOLT-4 leukemia; > 100 µM in the test on NCI-H23 lung; > 100 µM in the test with SK-MEL-2 melanoma; > 100 µM with SNB-19 CNS. For the same molecule, the TGI with SW-620 colon, with TK-10 renal and in the test on UACC-62 melanoma was > 100 µM each time.

As for `COC(=O)c1c2c(cc3c1CC1(Cc4cc5c(c(C)c4C1)CCC5)C3)CCC2` (stereo unspecified), the TGI in the test on HOP-62 NSCLC, in the test on M14 melanoma, with MOLT-4 leukemia, in the test on NCI-H23 lung, in the test with SK-MEL-2 melanoma and with SNB-19 CNS was > 100 µM in each case. The TGI in the test on SW-620 colon and in the test on TK-10 renal was > 100 µM in each case.

Take `CCOC(=O)c1cc2c3c(c(C(C)=O)c(OC)c2[nH]1)N(C(=O)CC)CC3`: the TGI stood at 56.9 µM in the test with HOP-62 NSCLC; 26.3 µM in the test with KM12 colon; 50.5 µM in the test with M14 melanoma; 35.9 µM in the test with MOLT-4 leukemia; 25 µM with NCI-H23 lung; 48.3 µM in the test with SK-MEL-2 melanoma. Also, the results for the TGI with SNB-19 CNS, in the test on SW-620 colon and with UACC-62 melanoma were 26.5 µM, > 100 µM and 34.4 µM, respectively.

For `Cn1c2ccccc2n2c3ncccc3c(=O)cc12`, the TGI in the test on HOP-62 NSCLC, in the test on KM12 colon, in the test on M14 melanoma, in the test with MOLT-4 leukemia, with NCI-H23 lung and in the test on SNB-19 CNS was > 100 µM in each case. The TGI with SW-620 colon and in the test with TK-10 renal was > 100 µM in each case.

As to `COc1ccc(/C=c2\[nH]c3nc(=O)c(N4CCCCC4)c(N)n3c2=O)cc1`, the TGI with KM12 colon, with M14 melanoma, in the test with MOLT-4 leukemia, with NCI-H23 lung, with SNB-19 CNS and in the test with SW-620 colon was > 100 µM throughout. In addition, the TGI in the test on TK-10 renal is > 100 µM.

Consider `Cc1ccc(N2C(=O)C3CSCN3C2=O)cc1` (stereo unspecified), for which the TGI with HOP-62 NSCLC, with KM12 colon, in the test on MOLT-4 leukemia, in the test on NCI-H23 lung, in the test on SK-MEL-2 melanoma and in the test with SNB-19 CNS was > 100 µM throughout. The TGI in the test with SW-620 colon and in the test with UACC-62 melanoma was > 100 µM throughout.

Turning to `COc1ccc(OC)c2c(C)ccnc12`, the TGI in the test on HOP-62 NSCLC is > 60.9 µM; with KM12 colon it was > 100 µM; in the test with M14 melanoma, 34.3 µM; in the test on NCI-H23 lung, > 96.1 µM; in the test with SK-MEL-2 melanoma, > 100 µM; with SNB-19 CNS, > 100 µM. Besides, the values for the TGI with SW-620 colon, in the test on TK-10 renal and with UACC-62 melanoma were > 85.6 µM, > 100 µM and 93.5 µM, respectively.

For `O=C1CC(c2ccsc2)n2cccc21` (stereo unspecified), the TGI in the test on HOP-62 NSCLC, with KM12 colon, in the test on M14 melanoma, in the test with NCI-H23 lung, in the test on SK-MEL-2 melanoma and in the test with SNB-19 CNS was > 100 µM in each case. Moreover, the TGI in the test on SW-620 colon, in the test on TK-10 renal and in the test with UACC-62 melanoma was > 100 µM each time.

As for `Oc1c(Cl)cc2cc1-c1cc(cc(Cl)c1O)CCc1c(cc(Cl)c(O)c1Cl)-c1cc(Cl)c(c(Cl)c1O)/C=C\2`, the TGI is 16 µM in the test on HOP-62 NSCLC; 15.1 µM in the test with KM12 colon; 15.6 µM in the test on M14 melanoma; > 50 µM in the test on MOLT-4 leukemia; 33.6 µM with NCI-H23 lung; 17.5 µM in the test on SK-MEL-2 melanoma. The TGI in the test on SNB-19 CNS stood at 26 µM; with SW-620 colon, 31.5 µM; with UACC-62 melanoma it was 18 µM.

As to `Oc1ccc(Cl)cc1-c1cc(-c2ccccc2)nc(=S)[nH]1`, the TGI was 46.9 µM in the test on HOP-62 NSCLC; > 100 µM in the test on KM12 colon; > 100 µM with M14 melanoma; > 100 µM in the test with MOLT-4 leukemia; > 100 µM in the test on NCI-H23 lung; 78.2 µM in the test with SK-MEL-2 melanoma. In addition, the TGI in the test on SNB-19 CNS was > 100 µM; in the test with SW-620 colon, > 100 µM; in the test with TK-10 renal it was 68.7 µM.

As for `CCOC(=O)c1c(N2CCCC2)[nH]c(=O)c(C(c2ccc(N(C)C)cc2)c2c(O)c(C(=O)OCC)c(N3CCCC3)[nH]c2=O)c1O`, the TGI in the test on HOP-62 NSCLC, in the test with KM12 colon, with M14 melanoma, with MOLT-4 leukemia, in the test with NCI-H23 lung and in the test on SNB-19 CNS was > 100 µM in each case. For the same molecule, the TGI with SW-620 colon, in the test on TK-10 renal and with UACC-62 melanoma was > 100 µM throughout.

With `COc1cc(S(=O)(=O)Nc2ccc(-c3csc(N4C(=O)C(Cl)C4c4ccccc4O)n3)cc2)ccc1Cl` (stereo unspecified), the TGI in the test with HOP-62 NSCLC is > 100 µM; in the test with KM12 colon, > 100 µM; in the test on M14 melanoma, > 100 µM; in the test with MOLT-4 leukemia, 41.7 µM; with NCI-H23 lung, 80.5 µM; in the test on SK-MEL-2 melanoma, > 100 µM. The TGI in the test on SNB-19 CNS is > 100 µM; in the test with SW-620 colon it was > 100 µM; in the test with UACC-62 melanoma, 59.1 µM.

For the molecule `O=C1c2ccncc2C(=O)c2c(O)ccc(O)c21`, the TGI in the test with HOP-62 NSCLC was found to be 61.6 µM; in the test with KM12 colon, 32.8 µM; in the test with M14 melanoma, 19.5 µM; in the test on MOLT-4 leukemia, 54.5 µM; in the test with SNB-19 CNS, 24.8 µM; in the test with SW-620 colon it was 11.5 µM. Further, the TGI in the test with TK-10 renal is 42.3 µM; in the test with UACC-62 melanoma it was 10.6 µM.

On to `CCOC(=O)C1CCC(=O)N1C(=O)c1cccc(Cl)c1` (stereo unspecified), for which the TGI in the test on HOP-62 NSCLC, in the test with KM12 colon, with M14 melanoma, in the test with MOLT-4 leukemia, with NCI-H23 lung and in the test on SNB-19 CNS was > 100 µM throughout. In addition, the TGI with SW-620 colon is > 100 µM; in the test on TK-10 renal, > 100 µM; with UACC-62 melanoma it was 62.4 µM.

As for `O=C(O)Cn1c2c(c3c1-c1ccccc1C3=O)C(=O)CCC2`, the GI50 in the test on HOP-62 NSCLC, in the test on KM12 colon, in the test on M14 melanoma, in the test on MOLT-4 leukemia, with NCI-H23 lung and with SK-MEL-2 melanoma was > 100 µM in each case. Moreover, the GI50 in the test on SNB-19 CNS, with SW-620 colon and in the test on TK-10 renal was > 100 µM throughout. Further, the TGI in the test on HOP-62 NSCLC, with KM12 colon, in the test with M14 melanoma, in the test with MOLT-4 leukemia, with NCI-H23 lung and in the test on SK-MEL-2 melanoma was > 100 µM each time. Also, the TGI with SNB-19 CNS, with SW-620 colon and in the test with TK-10 renal was > 100 µM throughout.

Take `O=c1c2ccccc2nc(N/N=C/c2ccc([N+](=O)[O-])cc2)n1-c1ccccc1`: the TGI with HOP-62 NSCLC is 67.5 µM; with KM12 colon, > 100 µM; in the test on M14 melanoma, > 100 µM; in the test with MOLT-4 leukemia, > 100 µM; with NCI-H23 lung it was > 100 µM; with SNB-19 CNS it was > 100 µM. In addition, the TGI in the test on TK-10 renal was 56.3 µM; in the test with UACC-62 melanoma, > 100 µM.

As for `c1ccc2c(Nc3ncco3)cccc2c1`, the TGI in the test on HOP-62 NSCLC, in the test with KM12 colon, in the test on M14 melanoma, in the test on MOLT-4 leukemia, in the test on NCI-H23 lung and in the test with SNB-19 CNS was > 10 µM each time. Besides, the TGI in the test with SW-620 colon, in the test with TK-10 renal and in the test on UACC-62 melanoma was > 10 µM each time.

As to `CCC1=C(C[C@H]2NCCc3cc(OC)c(OC)cc32)C[C@H]2c3cc(OC)c(OC)cc3CCN2C1`, the TGI was 0.106 µM in the test on HOP-62 NSCLC; 0.069 µM with M14 melanoma; > 100 µM in the test with MOLT-4 leukemia; 0.0532 µM with NCI-H23 lung; 0.0713 µM in the test on SK-MEL-2 melanoma; 11.3 µM in the test on SW-620 colon. In the test on UACC-62 melanoma, this molecule came in with a TGI of 0.138 µM.

As for `O=C(O)CSC1=NNC2(C(=O)N1)c1ccccc1-c1ccccc12`, the TGI in the test on HOP-62 NSCLC, with KM12 colon, with M14 melanoma, in the test with MOLT-4 leukemia, with NCI-H23 lung and in the test on SNB-19 CNS was > 10 µM each time. Moreover, the TGI with SW-620 colon, with TK-10 renal and in the test with UACC-62 melanoma was > 10 µM each time.

On to `Cc1ccc(-n2nncc2[Si](C)(C)C)s1`, for which the TGI in the test with M14 melanoma, with NCI-H23 lung, with SK-MEL-2 melanoma, with SNB-19 CNS, with SW-620 colon and with TK-10 renal was > 100 µM in each case. The TGI with UACC-62 melanoma is > 100 µM.
